According to ChEMBL document CHEMBL4219163, “Discovery of 2,6-disubstituted pyrazine derivatives as inhibitors of CK2 and PIM kinases” (Bioorg Med Chem Lett, 2018):

What was measured:
[1] = AUC (0 to t) in Wistar Han rat at 3 mg/kg, iv or 10 mg/kg, po; assay type: ADME, organism-based; conditions: in vivo
[2] = Volume of distribution at steady state in Wistar Han rat at 3 mg/kg, iv or 10 mg/kg, po; assay type: ADME, organism-based; conditions: in vivo, read-out: Vdss
[3] = Half life in Wistar Han rat at 3 mg/kg, iv; assay type: ADME, organism-based; conditions: in vivo
[4] = Cmax in Wistar Han rat at 3 mg/kg, iv or 10 mg/kg, po; assay type: ADME, organism-based; conditions: in vivo
[5] = Clearance in Wistar Han rat at 3 mg/kg, iv; assay type: ADME, organism-based; conditions: in vivo
[6] = Oral bioavailability in Wistar Han rat at 10 mg/kg; assay type: ADME, organism-based; conditions: in vivo
[7] = Lipophilicity, log D of the compound; assay type: physicochemical; conditions: octanol/water

Row | AUC(0-t) [1] [µM·h] | Vd [2] [L/kg] | half-life [3] [h] | Cmax [4] [nM] | clearance [5] [mL/min/kg] | bioavailability [6] [%] | logD [7] | SMILES
1 | 5.5 | 1.8 | 1 | 2900 | 56 | 80 |  | CC(C)Nc1ccc2ccn(-c3cncc(-c4ccc(C(=O)O)cc4)n3)c2c1
2 | 5.5 | 1 | 7.1 | 830 | 19 | 24 | 1.06 | CC(C)Nc1ccc2cnn(-c3cncc(-c4ccc(C(=O)O)cc4)n3)c2c1
